Laboratory results taken from ChEMBL document CHEMBL4406818, “Xanthone derivatives from the leaves of Garcinia oligantha” (2019).
Active and inactive are the calls of the source. The calls are words filed in the database; no cut-off is given here.

Columns and labels:
[1] = tested on: LNCaP; test: Cytotoxicity against quiescent human LNCAP cells assessed as induction of cell death at 20 uM measured after 24 hrs by SYBR green dye based fluorescence analysis; assay type: functional
[2] = tested on: LNCaP; test: Induction of cell death in quiescent human LNCAP cells assessed as proportion of live cells at 20 uM measured after 24 hrs by propidium iodide staining based flow cytometry analysis (reference value: 95.1%); assay type: functional
[3] = tested on: LNCaP; test: Induction of cell death in quiescent human LNCAP cells assessed as proportion of dead cells at 20 uM measured after 24 hrs by propidium iodide staining based flow cytometry analysis (reference value: 4.90 %); assay type: functional
[4] = tested on: LNCaP; test: Induction of cell death in quiescent human LNCAP cells assessed as proportion of dead cells at 5 uM measured after 24 hrs by propidium iodide staining based flow cytometry analysis (reference value: 4.90 %); assay type: functional
[5] = tested on: LNCaP; test: Induction of apoptosis in quiescent human LNCAP cells assessed as increase in caspase-3 activity at 8 to 12 uM measured after 24 hrs; assay type: functional, cell-based
[6] = tested on: LNCaP; test: Induction of apoptosis in quiescent human LNCAP cells assessed as decrease in Bcl-2 protein expression at 8 to 12 uM measured after 24 hrs by Western blot analysis; assay type: functional, cell-based
[7] = tested on: LNCaP; test: Induction of cell death in quiescent human LNCAP cells assessed as proportion of dead cells at 10 uM measured after 24 hrs by propidium iodide staining based flow cytometry analysis (reference value: 4.90 %); assay type: functional
[8] = tested on: LNCaP; test: Induction of cell death in quiescent human LNCAP cells assessed as proportion of live cells at 10 uM measured after 24 hrs by propidium iodide staining based flow cytometry analysis (reference value: 95.1%); assay type: functional
[9] = tested on: LNCaP; test: Induction of apoptosis in quiescent human LNCAP cells assessed as chromatin condensation at periphery of nucleus at 5 to 12 uM measured after 24 hrs by phase contrast microscopy; assay type: functional, cell-based
[10] = tested on: LNCaP; test: Cytotoxicity against quiescent human LNCAP cells assessed as induction of cell death measured after 24 hrs by […] dye based fluorescence analysis; assay type: functional
[11] = tested on: LNCaP; test: Induction of apoptosis in quiescent human LNCAP cells assessed as nucleus fragmentation at 5 to 12 uM measured after 24 hrs by Hoechst staining based fluorescent microscopy; assay type: functional, cell-based
[12] = tested on: LNCaP; test: Induction of cell death in quiescent human LNCAP cells assessed as proportion of dead cells at 7.5 uM measured after 24 hrs by propidium iodide staining based flow cytometry analysis (reference value: 4.90 %); assay type: functional
[13] = tested on: LNCaP; test: Induction of apoptosis in quiescent human LNCAP cells assessed as chromatin condensation at periphery of nucleus at 5 to 12 uM measured after 24 hrs by Hoechst staining based fluorescent microscopy; assay type: functional, cell-based
[14] = tested on: LNCaP; test: Induction of apoptosis in quiescent human LNCAP cells assessed as decrease in caspase-3 protein expression at 8 to 12 uM measured after 24 hrs by Western blot analysis; assay type: functional, cell-based
[15] = tested on: LNCaP; test: Induction of apoptosis in quiescent human LNCAP cells assessed as decrease in caspase-9 protein expression at 8 to 12 uM measured after 24 hrs by Western blot analysis; assay type: functional, cell-based
[16] = tested on: LNCaP; test: Induction of cell death in quiescent human LNCAP cells assessed as proportion of live cells at 5 uM measured after 24 hrs by propidium iodide staining based flow cytometry analysis (reference value: 95.1%); assay type: functional
[17] = tested on: LNCaP; test: Induction of cell death in quiescent human LNCAP cells assessed as proportion of live cells at 7.5 uM measured after 24 hrs by propidium iodide staining based flow cytometry analysis (reference value: 95.1%); assay type: functional
[18] = tested on: LNCaP; test: Induction of apoptosis in quiescent human LNCAP cells assessed as nucleus fragmentation at 5 to 12 uM measured after 24 hrs by phase contrast microscopy; assay type: functional, cell-based

SMILES: COC(=O)c1oc2c(CC=C(C)C)c(O)cc(O)c2c(=O)c1C(CC=C(C)C)(CC=C(C)C)C(=O)O
- Activity [1]: Active

SMILES: CC(C)=CCCC(C)(O)[C@@H]1C[C@@]2(CC=C(C)C)C(=C(O)C(=O)c3oc4c5c(cc(O)c4c(=O)c32)OC(C)(C)C=C5)O1 (stereo partly specified)
- Activity [1]: Active

SMILES: COC(=O)C12OC(=O)C(CC=C(C)C)(CC=C(C)C)C1C(=O)c1c(O)cc3c(c1O2)C=CC(C)(C)O3 (racemic)
- Activity [1]: Active

SMILES: CC(C)=CCc1c(O)cc(O)c2c(=O)c3c(oc12)C(=O)[C@@]1(O)C(=O)[C@]3(CC=C(C)C)C[C@@H]2C(C)(C)CCC[C@]21C
- Activity [1]: Active

SMILES: CC(C)=CCCC(C)(O)[C@@H]1C[C@@]23CC=C(C)CO[C@]2(O1)C(=O)c1oc2c4c(cc(O)c2c(=O)c13)OC(C)(C)C=C4 (stereo partly specified)
- Activity [1]: Active

SMILES: COC(=O)C1(O)C(=O)C(CC=C(C)C)(CC=C(C)C)c2c1oc1c3c(cc(O)c1c2=O)OC(C)(C)C=C3 (stereo unspecified)
- Activity [1]: Active

SMILES: CC(C)=CCC/C(C)=C/C[C@@]12C[C@H](C(C)(C)O)OC1=C(O)C(=O)c1oc3c4c(cc(O)c3c(=O)c12)OC(C)(C)C=C4
- Activity [1]: Active

SMILES: CC(=O)O[C@H]1C(=O)[C@@]2(C)[C@H]([C@H](OC(=O)c3ccccc3)[C@]3(O)C[C@H](OC(=O)[C@H](O)[C@@H](NC(=O)c4ccccc4)c4ccccc4)C(C)=C1C3(C)C)[C@]1(OC(C)=O)CO[C@@H]1C[C@@H]2O [PACLITAXEL]
- Activity [2]: 92.9%
- Activity [3]: 7.08%
- Activity [1]: inactive

SMILES: COC(=O)[C@]1(O)C(=O)[C@](CC=C(C)C)(C/C=C(\C)CCC=C(C)C)c2c1oc1c(CC=C(C)C)c(O)cc(O)c1c2=O
- Activity [4]: 12.4%
- Activity [5]: Active
- Activity [6]: Active
- Activity [7]: 70.1%
- Activity [8]: 29.9%
- Activity [9]: Active
- Activity [10]: Dose-dependent effect
- Activity [11]: Active
- Activity [12]: 50.1%
- Activity [1]: Active
- Activity [13]: Active
- Activity [14]: Active
- Activity [15]: Active
- Activity [16]: 87.6%
- Activity [17]: 49.9%
- Activity [18]: Active
